# In patent US20150216937A1, “METHODS FOR TREATING NEOPLASIA” (Altor BioScience Corporation, priority 2012, published 2015):
# Like-named read-outs stand apart in the source and are kept apart here.
# Columns and labels:
# [1] = tested on: HLA-A2+ p53+ UMUC-14 cells; experiment: In vitro 24-hour incubation of UMUC-14 cells with chemotherapeutic agents; assay type: cell-based, human; details: G0/G1 cell cycle arrest
# Description: The anti-tumor efficacy of multi-dose administration of […] (ALT-801), alone and in combination with gemcitabine and cisplatin, was evaluated on primary tumor growth in athymic nude mice bearing human bladder UMUC-14 and KU7P cells. Treatment with a gemcitabine and cisplatin regimen is the standard-of-care for patients with metastatic bladder cancer. To assess the in vitro effects of these chemotherapeutic agents on human bladder cancer cells, HLA-A2^+ p53^+ UMUC-14 cells were treated with gemcitabine and cisplatin, alone and in combination.
# UMUC-14 cells = experiment: WST-1 cell proliferation assay, UMUC-14; assay type: cell-based, human; details: WST-1 reagent, 24 hours, read-out: IC50, inhibition of UMUC-14 cell growth
# Description: (§1) The sensitivity of the human bladder tumor cell lines to gemcitabine and cisplatin was further assessed using a cell proliferation assay. UMUC-14 and KU7P cells were plated in media containing various amounts of gemcitabine and cisplatin and cell proliferation was determined using the WST-1 reagent 24 hours later.
# KU7P cells = experiment: WST-1 cell proliferation assay, KU7P; assay type: cell-based, human; details: WST-1 reagent, 24 hours, read-out: IC50, inhibition of KU7P cell growth
# Description: as §1
# MB49luc cells = experiment: Effect of IFN-γ on MB49luc cells, Annexin V flow cytometry; assay type: cell-based, mouse; details: 1 or 10 ng/mL
# Description: In the second part of this study, the effect of IFN-γ on MB49luc cell growth was investigated. MB49luc cells (2×10^5/well) were cultured in RPMI-10 with IFN-γ at 1 or 10 ng/mL. The IFN-γ-treated MB49luc cells were harvested and stained with FITC-labeled Annexin V. The Annexin V positive apoptotic MB49luc cells were determined by flow cytometry.
# [2] = tested on: subcutaneous KU7P human bladder tumors; experiment: Subcutaneous KU7P xenograft, monotherapy; assay type: in vivo, nude mice; details: Gem 40 mg/kg, MART-1scTCR/IL-2 2.19 mg/kg, ALT-801 1.6 mg/kg
# Gr1+CD11b+ MDSCs = experiment: Spleen Gr1+CD11b+ MDSCs after gemcitabine; assay type: in vivo, C57BL/6 mice; details: 40 mg/kg i.v., three days after; untreated tumor-bearing 4.29 (±1.32), normal 1.19 (±0.25)
# Description: Gemcitabine is one of the drugs in the standard combination chemotherapy for muscle invasive bladder cancer. It has been reported that gemcitabine reduces myeloid-derived suppressor cells (MDSCs) in tumor-bearing mice. In this report, we studied the effect of gemcitabine on MDSCs induced by MB49luc cells in mice. MB49luc tumor-bearing mice were treated intravenously with gemcitabine at 40 mg/kg. Three days after gemcitabine treatment, splenocytes were isolated and the percentage of Gr1^+CD11b^+ MDSCs was determined by flow cytometry. The MDSCs accounted for 1.19 (±0.25) percent of the splenocytes in normal control mice without MB49luc tumors. These MDSCs increased to 4.29 (±1.32) percent of splenocytes in MB49luc tumor-bearing mice.
# [3] = tested on: subcutaneous MB49G tumors; experiment: Gemcitabine resistant subcutaneous MB49G tumor model; assay type: in vivo, mice; details: ALT-801 0.8 mg/kg (sub-optimal dose), gemcitabine 40 mg/kg
# Excerpt: As potent suppressors of various immune cell functions, MDSCs are potential therapeutic targets for anticancer treatment. For example, gemcitabine, a widely-used chemotherapeutic, can selectively eliminate MDSCs in tumor-bearing animals and enhance tumor-suppressive immune activity (Suzuki et al., Clin Cancer Res, 11: 6713-6721, 2005).
Compound,UMUC-14 cell proliferation [1],IC50 (UMUC-14 cells) [µM],IC50 (KU7P cells) [µM],cytotoxicity against MB49luc cells (Annexin V positive apoptotic cells) (MB49luc cells),"IC50 (UMUC-14 cells; Homo sapiens, UMUC14) [µM]",growth of subcutaneous KU7P tumors compared to PBS treated mice [2],IC50 (KU7P cells; Homo sapiens) [µM],spleen Gr1+CD11b+ MDSCs as percent of splenocytes (Gr1+CD11b+ MDSCs),tumor growth / progression compared to PBS treated mice [3]
N.N.[Cl][Pt][Cl] [cisplatin],dose dependent decrease,9.2,1.4,–,–,–,–,–,–
IFN-γ: cytokine added to MB49luc cell cultures,–,–,–,does not directly result in detectable cytotoxicity,–,–,–,–,–
Nc1ccn([C@@H]2O[C@H](CO)[C@@H](O)C2(F)F)c(=O)n1 [gemcitabine],dose dependent decrease,–,–,–,2030,statistically significant decrease,0.05,1.83 (±0.92) percent,did not significant differ
